Like-named read-outs stand apart in the source and are kept apart here.
Key:
[1] = Cytotoxicity assay in macrophage RAW 264.7 (resazurin); assay type: cell-based; details: mouse, RAW 264.7 macrophages, pH 7.2; RAW 264.7 cells, 200 to 1.56 μM, 48 h treatment, resazurin
Method: (§1) RAW 264.7 cells were cultured in Roswell Park Memorial Institute (RPMI) medium, pH 7.2, supplemented with 10% (v/v) heat-inactivated fetal bovine serum (FBS) (Gibco), 100 μg mL^–1 penicillin (Sigma), 2 g L^–1 sodium bicarbonate, 2 mM L-glutamine, and 25 mM HEPES, and maintained at 37 °C in a humidified incubator with 5% CO2 atmosphere.[27] The cells were then seeded into sterile 96-well plates at a density of 5 × 10^4 cells/well, followed by the addition of the compounds at a concentration of 10 μM for screening, and in a range of 200 μM to 1.56 μM for the determination of the 50% cytotoxic concentration (CC50). Controls included 1% DMSO and amphotericin B at 3.125 μg mL^–1, with 48 h of treatment. Cell viability was assessed using 1 mM resazurin, with subsequent readings performed on a Spectramax spectrophotometer at wavelengths of 570 and 600 nm.

RAW 264.7 macrophages = test: as above; assay type: cell-based; details: RAW 264.7 cells, highest concentration (200 μM), 48 h
Method: as §1

[2] = Cytotoxicity assay in Vero cells (MTT); assay type: cell-based, African green monkey (Cercopithecus aethiops); details: African green monkey, Vero cells (ATCC CCL-81), pH 7.3, MTT, 1 × 10^4 cells per well, 500 to 7.8 μM
Method: (§2) The Vero cell (ATCC, CCL-81) was cultured in Dulbecco’s modified Eagle medium (DMEM), pH 7.3, supplemented with 10% FBS (v/v) and a penicillin/streptomycin solution (0.1 mg mL^–1/100 U mL^–1). The cells were incubated at 37 °C in a humidified atmosphere with 5% CO2. The MTT reduction assay (3-(4,5-dimethylthiazol-2-yl)-2,5-diphenyltetrazolium bromide) was adapted from Mosmann[43] to evaluate cytotoxicity. For this assay, 1 × 10^4 cells per well were seeded in 96-well plates and incubated overnight until reaching approximately 80% confluence. Wells were treated with different compound concentrations (500 to 7.8 μM) in triplicate. The culture medium was replaced with 0.5 mg mL^–1 MTT solution, and the plate was incubated for 3 h. The resulting formazan crystals were solubilized in DMSO, and absorbance was measured using a Spectramax spectrophotometer at a wavelength of 540 nm to assess cell viability.

Vero cells [3] = test: Cytotoxicity assay in Vero cells (MTT); assay type: cell-based, African green monkey (Cercopithecus aethiops)
Method: as §2

[4] = test system: L. braziliensis MHOM/BR/75/M2904; test: In vitro infection of RAW 264.7 macrophages by L. braziliensis-GFP (leishmanicidal screening); assay type: cell-based; details: Leishmania braziliensis; for viability at 10 µM: RAW264.7, 48 h, read-out: parasite viability; for IC50: RAW264.7, suggested from the 10 μM screening, L. braziliensis in RAW 264.7 macrophages, 48 h
Method: L. braziliensis MHOM/BR/75/M2904 was cultured in Grace’s insect medium (pH 6.5) supplemented with 10% (v/v) heat-inactivated fetal bovine serum (FBS) (Gibco), 100 μg mL^–1 penicillin (Sigma), and 2 mM L-glutamine, maintained at 25 °C in a B.O.D. incubator. Using the stationary phase culture on the seventh day, 2.0 × 10^6Leishmania/well were transferred to a 96-well plate containing 1.0 × 10^5 preadhered macrophages/well, following an adapted infection protocol.[44] After applying the compounds at a concentration of 10 μM, 1% DMSO and amphotericin B (3.125 μg mL^–1) were used as controls. Treatments were conducted for 48 h, followed by macrophage lysis using 0.1% SDS solution, which was subsequently neutralized with complete Grace’s medium. To recover promastigote forms, the plate was incubated for 5 days. Fluorescence was measured using a Spectramax fluorometer, with excitation at 490 nm and emission at 520 nm.

Vero cells [5] = test system: Vero cells; set-up: method as in earlier work; details: 15 μg mL^–1 (equivalent to 16.23 μM), neutral red cytotoxicity assay; cited from earlier work
[6] = test system: murine peritoneal macrophages; set-up: method as in PMID 36375398; details: cited from earlier work
human monocyte cell line = test system: human monocyte cell line; set-up: method as in PMID 32272211; details: 48 h treatment, cited from earlier work
Vero cells [7] = test system: Vero cells; set-up: method as in PMID 29877104; details: 5 × 10^4 cells per well, cited from earlier work
L. amazonensis = test system: L. amazonensis; set-up: method as in PMID 32272211; details: L. amazonensis amastigote stage, 48 h treatment, cited from earlier work
[8] = high concentrations (500 and 250 μM)
[9] = all tested concentrations (500 to 7.8 μM)
[10] = converted from μg mL^–1, read-out: CC50 (equivalent)

| Structure (SMILES) | CC50 at 48 h [1] [µM] | cell viability at the highest concentration compared to the control (RAW 264.7 macrophages) | CC50 [2] [µM] | survival rate (Vero cells [3]; [8]) | survival rate (Vero cells [3]; [9]) | other results |
| --- | --- | --- | --- | --- | --- | --- |
| Cc1ccc(C(C)C)cc1OCC(=O)Nc1ccccc1Cl [Compound 1, N-(2-Chlorophenyl)-2-(5-isopropyl-2-methylphenoxy)acetamide] | > 200 | no significant differences | 200 | below 50% | – | – |
| Cc1ccc(C(C)C)cc1OCC(=O)Nc1cccc(Cl)c1 [Compound 2, N-(3-Chlorophenyl)-2-(5-isopropyl-2-methylphenoxy)acetamide] | > 200 | – | – | – | above 50% | – |
| Cc1ccc(C(C)C)cc1OCC(=O)Nc1ccc(Cl)cc1 [Compound 3, N-(4-Chlorophenyl)-2-(5-isopropyl-2-methylphenoxy)acetamide] | > 200 | – | 449 | below 50% | – | – |
| Cc1ccc(C(C)C)cc1OCC(=O)Nc1ccccc1Br [Compound 4, N-(2-Bromophenyl)-2-(5-isopropyl-2-methylphenoxy)acetamide] | > 200 | – | 372 | below 50% | – | – |
| Cc1ccc(C(C)C)cc1OCC(=O)Nc1cccc(Br)c1 [Compound 5, N-(3-Bromophenyl)-2-(5-isopropyl-2-methylphenoxy)acetamide] | > 200 | no significant differences | – | – | above 50% | viability at 10 µM [4]: ~50%; IC50 [4]: ~10 µM |
| Cc1ccc(C(C)C)cc1OCC(=O)Nc1ccc(Br)cc1 [Compound 6, N-(4-Bromophenyl)-2-(5-isopropyl-2-methylphenoxy)acetamide] | > 200 | no significant differences | 182 | below 50% | – | – |
| Cc1ccc(C(C)C)cc1OCC(=O)Nc1ccccc1F [Compound 7, N-(2-Fluorophenyl)-2-(5-isopropyl-2-methylphenoxy)acetamide] | > 200 | no significant differences | – | – | above 50% | viability at 10 µM [4]: ~50%; IC50 [4]: ~10 µM |
| Cc1ccc(C(C)C)cc1OCC(=O)Nc1cccc(F)c1 [Compound 8, N-(3-Fluorophenyl)-2-(5-isopropyl-2-methylphenoxy)acetamide] | > 200 | – | 337 | below 50% | – | – |
| Cc1ccc(C(C)C)cc1OCC(=O)Nc1ccc(F)cc1 [Compound 9, N-(4-Fluorophenyl)-2-(5-isopropyl-2-methylphenoxy)acetamide] | > 200 | – | – | – | above 50% | – |
| Cc1ccc(C(C)C)cc1OCC(=O)Nc1ccccc1 [Compound 10, 2-(5-Isopropyl-2-methylphenoxy)-N-phenylacetamide] | > 200 | – | – | – | above 50% | – |
| C[C@@H]1[C@H](O)[C@@H](C)/C=C/C=C/C=C/C=C/C=C/C=C/C=C/[C@H](O[C@@H]2O[C@H](C)[C@@H](O)[C@H](N)[C@@H]2O)C[C@@H]2O[C@](O)(C[C@@H](O)C[C@@H](O)[C@H](O)CC[C@@H](O)C[C@@H](O)CC(=O)O[C@H]1C)C[C@H](O)[C@H]2C(=O)O [amphotericin B] | – | – | – | – | – | toxicity (Vero cells [5]): over 70% |
| Cc1ccc(C(C)C)cc1O [carvacrol] | – | – | – | – | – | CC50 ([6]; 24 h treatment, converted from μg mL^–1, read-out: CC50 (equivalent)): 505 µM; CC50 ([6]; 24 h treatment): 75.91 μg mL^–1; CC50 ([6]; 72 h treatment, converted from μg mL^–1, read-out: CC50 (equivalent)): 268 µM; CC50 ([6]; 72 h treatment): 40.23 μg mL^–1; CC50 (human monocyte cell line; [10]): 427 µM; CC50 (human monocyte cell line): 64.10 μg mL^–1; CC50 (Vero cells [7]; [10]): 572 µM; CC50 (Vero cells [7]): 86 ± 1.41 μg mL^–1; IC50 (L. amazonensis; converted from μg mL^–1, read-out: IC50 (equivalent)): ~182 µM; IC50 (L. amazonensis): approximately 27.40 μg mL^–1 |
